Reference: PMC13635228 (Nature Communications, 2026)

Tests used:
mouse C3aR = experiment: Transducer-coupling assays taken together; type: cell-based
C3aR = settings: cited from earlier work
human C3aR = experiment: Transducer-coupling assays taken together; type: cell-based

NC(N)=NCCC[C@H](NC(=O)COCC(c1ccccc1)c1ccccc1)C(=O)O [SB290157, reference compound]
activation of mouse C3aR (mouse C3aR; G protein activation or β-arrestin recruitment): did not activate mouse C3aR | agonistic activity (C3aR; various cellular assays, ref [45]-[47]): agonistic activity | agonist profile, G-protein activation (human C3aR; compared to C3a): partial agonist profile | βarr recruitment response (human C3aR; compared to C3a): weak response in βarr recruitment

C3a^-d-Arg: C3a with terminal arginine removed by carboxypeptidases; species not stated
activity at human and mouse C3aR (C3aR; ref [25],[30],[67]): very weak activity

hC3a: full-length recombinant human complement anaphylatoxin C3a, natural agonist of C3aR, expressed in E. coli
potency and efficacy, human vs. mouse C3a (mouse C3aR; mouse C3aR): equally potent and efficacious | efficacy (human C3aR): full agonists | potency, human vs. mouse C3a (human C3aR): more potent

mC3a-d-Arg: mouse C3a with terminal arginine removed
activity (mouse C3aR; mouse C3aR): weak but measurable activity

mC3a: full-length recombinant mouse complement anaphylatoxin C3a (S1-R78), expressed in E. coli
potency and efficacy, human vs. mouse C3a (mouse C3aR; mouse C3aR): equally potent and efficacious | efficacy (human C3aR): full agonists
